From paper PMC5462101 (Future medicinal chemistry, 2015)
Where “and” joins values, the source holds several entries; their conditions need not be identical. Equal entries are not always repeated.

Key:
rat model of colitis = assay: Acetic acid-induced colitis in the rat; type: in vivo, Fisher 344 rats; settings: 0.01 mmol/kg intrarectally, 4% acetic acid
Experimental: LOX has also been associated with inflammation and ulcerative colitis. In the present study, a model for colitis involving intracolonic administration of aqueous 4% acetic acid in the rat was used, leading to acute inflammatory reaction. Treated rats presented partial to diffuse petechial bleeding, single erosion and limited ulceration indicating an overall healing effect of the compounds. Substituted pteridines presenting a satisfactory combination of activities 5a, 18a, 18d and 18f were tested using this in vivo model characterized by diffuse exfoliated mucosa as well as multiple and extended erosion and ulcers of the colon (Table 3). No mortality was encountered.
(§1) Fisher 344 rats (150-200 g) were housed in wire-mesh cages, given standard laboratory chow and tap water ad libitum and acclimatized for one week before experiments. Rats were randomly assigned to experimental groups. All in vivo experiments conform to the law for the protection of experimental animals (Republic of Greece) and are registered at the Veterinary Administration of the Republic of Greece in accordance with recognized guidelines on animal experimentation including Directive 2010/63/EU.
Induction of colitis
Rats were anesthetized using pentobarbital (50 mg/kg ip) prior to administration with 1 mL of either vehicle (0.9% w/v saline) or the compound under study at doses 0.01mmol/kg intrarectally via a polyethylene cannula (fitted to a 1 mL syringe) with the tip inserted approximately 8 cm into the anus. Following 30 min pretreatment, 1 ml of 4% acetic acid was introduced into the colon intrarectally and, after exposure for 60 s, the excess fluid was withdrawn. The luminal content was then expelled by instillation of air (10 mL), the ligature was removed and the abdomen was sutured. Both groups of rats were allowed to recover with food and water and the resulting injury was assessed after 48 h. The experiment was conducted using two groups, each containing 3 animals.
Assessment of colonic damage. Rats were weighed, inspected for the presence of diarrhea and sacrificed using diethyl ether. The colons were excised and opened longitudinally, rinsed with cold saline, pinned out and observed under a dissecting microscope. Colonic damage was scored using the system of MacPherson and Pfeiffer: 0 – normal appearance, 1- hyperaemia, 2 – patchy petechial bleeding, 3 – diffuse petechial bleeding, 4 – partial exfoliated mucosa or single erosion or ulceration, 5 – diffuse exfoliated mucosa or multiple erosions or ulceration. The presence or absence of adhesions between the colon and the surrounding tissues was recorded. Scoring of the colonic damage (Table 4) was carried out by an observer unaware of the treatment.

[1] = Inhibition of linoleic acid peroxidation (AAPH); settings: linoleic acid peroxidation initiated by AAPH, 37 °C, pH 7.4
Excerpt: Azo compounds that generate free radicals through spontaneous thermal decomposition are useful for in vitro studies of free radical production. The water-soluble AAPH has been extensively used as a clean and controllable source of thermally produced alkylperoxyl free radicals. […] Evidently, the presence of 6,7-dimethyl groups on the pteridine ring greatly enhances protection against lipid peroxidation; the nature of the alkyl group and ring size on the 2-substituent has some, but much less, effect. […] The role of lipophilicity (as assessed from calculated clogP values; Table 1) is not clear, but substituent bulk plays a significant role.
Inhibition of linoleic acid peroxidation
Production of conjugated diene hydroperoxide by oxidation of linoleic acid in an aqueous dispersion was monitored at 234 nm. 2,2’-Azobis(2-amidinopropane) dihydrochloride (AAPH) was used as a free radical initiator. This assay was used to follow oxidative changes and to determine the inhibition of the peroxidation of sodium linoleate by each tested compound. A dispersion of sodium linoleate (16 mM, 10 μL) was added to the UV cuvette containing phosphate buffer (0.05 M, 0.93 mL) at pH 7.4 and kept in a thermostat at 37 °C. The oxidation reaction was initiated at 37 °C under air by the addition of AAPH solution (40 mM, 50 μL). Oxidation was carried out in the presence of aliquots (10 μL) of the tested compound. In the assay without antioxidant, lipid oxidation was measured in the presence of DMSO (10 μL). The rate of oxidation at 37 °C was monitored by recording the increase in absorption at 234 nm caused by conjugated diene hydroperoxide formation (Table 2).
IC50 determinations. OriginPro 8 was used to determine IC50 values from the sigmoidal line fitted to a graph of log[concentration] against the average percentage inhibition from two independent experiments, with at least 6 different concentrations. The SEM is the calculated standard error in the IC50 value of the fitted line.

[2] = tested on: carrageenin-induced rat paw edema; assay: Inhibition of carrageenin-induced rat paw edema; type: in vivo, Fisher 344 rats
Experimental: The incipient pattern of this edema is characterized by the effects of histamine and 5-hydroxytryptamine. After 1 h, reduction of edema in the rat paw achieved by the pteridine 18f was appreciably greater than the reduction induced by the reference compound indomethacin, a nonselective COX-inhibitor and commonly used nonsteroidal anti-inflammatory drug. Thus, 18f and some related pteridines offer significant protection against reactive oxygen species produced in a model of colitis, probably on account of their properties as antioxidants and radical scavengers.
as §1
Inhibition of carrageenin-induced edema
Edema was induced in the right hind paw of Fisher 344 rats (150-200 g) by intradermal injection of aqueous carrageenin (0.1 mL, 2%). Pregnant females were excluded from the study, but both sexes were used. Each group comprised 6-15 rats which were bred and housed under standard conditions and received a diet of commercial food pellets and water ad libitum during maintenance but were entirely fasted during the experiment period. Each compound (0.01 mmol/kg body weight) was suspended in water to which had been added a few drops of Tween 80 and then the mixture was ground in a mortar prior to being administered intraperitoneally and simultaneously with the carrageenin injection. Rats were euthanized 1 h after injection, and the difference between the weight of the injected and non-injected paws was calculated for each animal. The change in paw weight was compared with that in control animals (treated with water) and the inhibition of the edema was expressed as a percentage (Table 4). […]

CN1CCN(c2nc(NCc3cccs3)c3nccnc3n2)CC1 [Compound 18f, 2-(4-methylpiperazin-1-yl)-N-(thiophen-2-ylmethyl)pteridin-4-amine]
Change in body weight (%) (rat model of colitis; assessed after 48 h): -10.7% | Score (levels 0–5) (rat model of colitis; colonic damage score, 48 h): All rats exhibited partial to diffuse exfoliated mucosa or single/multiple erosion or ulceration (4–5) | IC50 [1]: 100 ± 1.5 µM | Greater reduction of edema in rat paw than indomethacin ([2]; 0.01 mmol/kg, relative to indomethacin): 60% | Reduction of rat paw edema after 1 h (%) ([2]; rat, 0.01 mmol/kg intraperitoneally, 1 h, mean of two experiments): 41% and 41 ^† %
